How the values were obtained:
APPsw+/− mice [1] = assay: Resting CBF by laser-doppler flowmetry, acute FPS2 treatment of APPsw+/− mice; assay type: in vivo; conditions: 1 mg/kg intravenous bolus, 7-9 months old mice
Experimental: Cerebral blood flow changes expressed as a percentage of baseline recorded over a 90 min period in mice administered FPS2 (filled triangle) or vehicle (filled square). FPS2 (1 mg/kg) was administered intravenously (arrow) as a bolus in 7-9 months old mice. Values are means±s.e.m, n=3 per group.
(§1) APPsw^+/− mice were treated with FPS2 (1 mg/kg) or with vehicle daily by intraperitoneal injection for two months starting at 8 months old. At the end of the treatment period functional changes in cerebral blood flow (CBF) to brain activation, and memory tests were determined. Brain and plasma Aβ levels were also determined in FPS2 and vehicle treated mice. […]
(§2) Compounds were synthesized in parallel using semiautomated chemical reactions. […] Purity was assessed by reverse-phase gradient HPLC. […] After two months of treatment, (i) the cerebral blood flow response to brain activation (whisker stimulation) was measured and (ii) behavioral tests including operant learning, novel object location (NOL), and novel object recognition (NOR) were performed. After these functional tests, the mice were sacrificed and their brains analyzed for Aβ40, Aβ42, and amyloid levels. • CBF response to brain activation. The CBF response to vibrissal stimulation in anesthetized APPsw^+/− mice was measured by using laser-doppler flowmetry (Transonic Systems, BLF 21 D). […]

[2] = tested on: RAGE-transfected CHO cells; assay: Thiobarbituric acid reactive substance (TBARS) generation (Aβ/RAGE-induced oxidant stress) in RAGE-transfected CHO cells; assay type: cell-based; conditions: 1 μM Aβ40; FPS2 at 50 nM or 500 nM
[3] = tested on: RAGE-transfected CHO cells; assay: NF-κB activation (translocation) in RAGE-transfected CHO cells; assay type: cell-based; conditions: 1 μM Aβ40; FPS2 at 50 nM or 500 nM
APPsw+/− mice [4] = assay: CBF response to brain activation (whisker stimulation), chronic FPS2 treatment of APPsw+/− mice; assay type: in vivo; conditions: 1 mg/kg per day i.p. for two months from 8 months of age
Experimental: (A) Percent increase in cerebral blood flow (CBF) in response to brain activation in mice treated with vehicle (open bar) or FPS2 (closed bar). (B-C) novel object location (B) and novel object recognition (C) expressed as percent exploratory preference in APPsw^+/− mice treated with vehicle (open bar) or FPS2 (closed bar). FPS2 (1 mg/kg per day) was intraperitoneally administered for two months beginning at the age of 8 months old mice. Values are means±s.e.m, n=5-6 per group.
as §1
as §2, with “activation.” for “activation. The CBF response to vibrissal stimulation in anesthetized APPsw^+/− mice was measured by using laser-doppler flowmetry (Transonic Systems, BLF 21 D).”

Compound: CC(CC(=O)NCCCN(C(=O)c1cc([N+](=O)[O-])cc([N+](=O)[O-])c1)c1ccccc1)CC(C)(C)C (centres unmarked) [FPS2, 3,5-dinitro-N-phenyl-N-[3-[(3,5,5-trimethyl-1-oxohexyl)amino]propyl]-(9Cl)-benzamide]
- time of peak of resting CBF increase (APPsw+/− mice [1]): 25 to 30 min
- transient increase of resting CBF (APPsw+/− mice [1]): about 35%
- TBARS generation [2]: inhibited
- NF-κB activation [3]: inhibited
- increase of CBF during brain activation compared to vehicle (APPsw+/− mice [4]): about 50%

From patent US8778985B2, “Inhibiting amyloid-beta peptide/rage interaction at the blood-brain barrier” (The University of Rochester, priority 2006, dated 2014)
